Assay [1] relates to Trypanosoma cruzi. Nature of the assay: Antitrypanosomal activity against epimastigote stage of Trypanosoma cruzi Y assessed as parasite growth inhibition after 5 days by spectrophotometric analysis. It is filed as functional.
The nature of assay [2]: Selectivity index, ratio of IC50 for human fibroblasts to GI50 for epimastigote stage of Trypanosoma cruzi Y.
The nature of assay [3]: Cytotoxicity against human fibroblasts assessed as growth inhibition after 24 hrs by MTT assay. In kind it is cell-based. To be noted: Fibroblast.

Usually GI50 stands for the concentration giving 50% growth inhibition. What is called IC50 is the concentration that inhibits the measured activity by half.

Calls of active or inactive are those of the source. The calls are words filed in the database; no cut-off is given here. Bounds are passed on as bounds.

Consider `CCCCc1ccc(C(=O)N/N=C/c2ccc3c(c2)no[n+]3[O-])cc1`, for which the log1/GI50 in assay [1] was determined as 5.43. In addition, in assay [1] (Trypanosoma cruzi, Y, 120 h), the GI50 is 3.72 µM. Besides, in assay [2], the “Selectivity Index” value is recorded as >53.76. Moreover, the half-maximal inhibitory concentration (IC50) in assay [3] is > 200 µM.

Regarding `NS(=O)(=O)c1ccc(C(=O)N/N=C/c2ccc3c(c2)no[n+]3[O-])cc1`, the log1/GI50 in assay [1] is given as 4.22. Besides, in assay [1] (Trypanosoma cruzi, Y, 120 h), the GI50 turned out to be 60.4 µM. The “Selectivity Index” value in assay [2] turned out to be 0.99. Moreover, the IC50 in assay [3] worked out at 60 µM.

For `CC(C)c1ccc(C(=O)N/N=C/c2ccc3c(c2)no[n+]3[O-])cc1`, the log1/GI50 in assay [1] turned out to be 5.15. Besides, the concentration for 50% growth inhibition (GI50) in assay [1] (Trypanosoma cruzi, Y, 120 h) was determined as 7.12 µM. Besides, the “Selectivity Index” value in assay [2] is reported as >28.09. Moreover, the half-inhibitory concentration (IC50) in assay [3] was > 200 µM.

`O=C(N/N=C/c1ccc2c(c1)no[n+]2[O-])c1ccc(Cl)cc1Cl`: the log1/GI50 in assay [1] was determined as 5.02. The GI50 in assay [1] (Trypanosoma cruzi, Y, 120 h) came out at 9.54 µM. In addition, the “Selectivity Index” value in assay [2] is given as 4.01. Also, in assay [3], the IC50 came out at 38.3 µM.

As to `N#Cc1ccc(C(=O)N/N=C/c2ccc3c(c2)no[n+]3[O-])cc1`, the log1/GI50 in assay [1] amounted to 4.58. The concentration for 50% growth inhibition (GI50) in assay [1] (Trypanosoma cruzi, Y, 120 h) amounted to 26.6 µM.

For `O=C(N/N=C/c1ccc2c(c1)no[n+]2[O-])c1ccc(Cl)cc1`, the log1/GI50 in assay [1] is recorded as 5. Also, in assay [1] (Trypanosoma cruzi, Y, 120 h), the GI50 worked out at 9.96 µM.

`CC(=O)c1ccc(C(=O)N/N=C/c2ccc3c(c2)no[n+]3[O-])cc1`: the log1/GI50 in assay [1] was found to be 4.8. The 50% growth inhibitory concentration (GI50) in assay [1] (Trypanosoma cruzi, Y, 120 h) is 16 µM.

Take `CCc1ccc(C(=O)N/N=C/c2ccc3c(c2)no[n+]3[O-])cc1`: in assay [1], the log1/GI50 is given as 5. The GI50 in assay [1] (Trypanosoma cruzi, Y, 120 h) is 9.91 µM.

Consider `O=C(N/N=C/c1ccc2c(c1)no[n+]2[O-])c1ccccc1`, for which the log1/GI50 in assay [1] was found to be 4.77. Besides, the GI50 in assay [1] (Trypanosoma cruzi, Y, 120 h) is 16.9 µM.

As for `CCCCOc1ccc(C(=O)N/N=C/c2ccc3c(c2)no[n+]3[O-])cc1`, in assay [1], the log1/GI50 came out at 5.24. In assay [1] (Trypanosoma cruzi, Y, 120 h), the GI50 is 5.78 µM. Besides, the “Selectivity Index” value in assay [2] is on record as >34.6. Also, the IC50 in assay [3] is > 200 µM.

Regarding `Cc1ccc(C(=O)N/N=C/c2ccc3c(c2)no[n+]3[O-])cc1`, in assay [1], the log1/GI50 turned out to be 4.93. In addition, the concentration for 50% growth inhibition (GI50) in assay [1] (Trypanosoma cruzi, Y, 120 h) stood at 11.9 µM.

For the compound `O=C(N/N=C/c1ccc2c(c1)no[n+]2[O-])c1ccc(Cl)c(Cl)c1`, the log1/GI50 in assay [1] came out at 5.04. The GI50 in assay [1] (Trypanosoma cruzi, Y, 120 h) is 9.07 µM. Besides, the “Selectivity Index” value in assay [2] is listed as 7.17. Further, in assay [3], the IC50 came out at 65 µM.

Take `O=C(N/N=C/c1ccc([N+](=O)[O-])o1)c1ccc(O)cc1` [NIFUROXAZIDE]: the log1/GI50 in assay [1] is listed as 3.92. Further, the 50% growth inhibitory concentration (GI50) in assay [1] (Trypanosoma cruzi, Y, 120 h) was 120 µM. The “Selectivity Index” value in assay [2] was 0.64. In assay [3], the half-maximal inhibitory concentration (IC50) stood at 77.4 µM.

`COc1ccc(C(=O)N/N=C/c2ccc3c(c2)no[n+]3[O-])cc1`: the log1/GI50 in assay [1] is given as 4.88. Moreover, the 50% growth inhibitory concentration (GI50) in assay [1] (Trypanosoma cruzi, Y, 120 h) worked out at 13.2 µM.

As for `CCCOc1ccc(C(=O)N/N=C/c2ccc3c(c2)no[n+]3[O-])cc1`, the log1/GI50 in assay [1] is reported as 5.39. For the same compound, the GI50 in assay [1] (Trypanosoma cruzi, Y, 120 h) worked out at 4.07 µM. Further, the “Selectivity Index” value in assay [2] is >49.14. The IC50 in assay [3] is > 200 µM.

Regarding `CCCc1ccc(C(=O)N/N=C/c2ccc3c(c2)no[n+]3[O-])cc1`, the log1/GI50 in assay [1] was 5.52. Besides, the GI50 in assay [1] (Trypanosoma cruzi, Y, 120 h) stood at 3.04 µM. The “Selectivity Index” value in assay [2] was >65.79. In assay [3], the IC50 was > 200 µM.

In the case of `CC1CS(=O)(=O)CCN1/N=C/c1ccc([N+](=O)[O-])o1` (stereo unspecified) [NIFURTIMOX], in assay [1], the log1/GI50 was determined as 5.42. Further, in assay [1] (Trypanosoma cruzi, Y, 120 h), the GI50 turned out to be 3.78 µM. Also, the “Selectivity Index” value in assay [2] is >52.91. The IC50 in assay [3] was > 200 µM.

Turning to `O=C(Cn1ccnc1[N+](=O)[O-])NCc1ccccc1` [BENZNIDAZOLE], the log1/GI50 in assay [1] came to 4.68. Besides, in assay [1] (Trypanosoma cruzi, Y, 120 h), the GI50 is 22.7 µM. The “Selectivity Index” value in assay [2] was >9.6. Besides, the IC50 in assay [3] is > 200 µM.

For `O=C(N/N=C/c1ccc2c(c1)no[n+]2[O-])c1ccc([N+](=O)[O-])cc1`, the log1/GI50 in assay [1] was 4.75. Besides, the GI50 in assay [1] (Trypanosoma cruzi, Y, 120 h) amounted to 17.8 µM.

With `O=C(N/N=C/c1ccc2c(c1)no[n+]2[O-])c1ccc([N+](=O)[O-])c(C(F)(F)F)c1`, the log1/GI50 in assay [1] is listed as 4.8. In addition, the GI50 in assay [1] (Trypanosoma cruzi, Y, 120 h) came out at 15.9 µM.

For the compound `O=C(N/N=C/c1ccc2c(c1)no[n+]2[O-])c1ccc(O)cc1`, the GI50 entry in assay [1] is “inactive”.

As to `O=C(N/N=C/c1ccc2c(c1)no[n+]2[O-])c1ccc(Br)cc1`, the log1/GI50 in assay [1] was 5.11. Moreover, the concentration for 50% growth inhibition (GI50) in assay [1] (Trypanosoma cruzi, Y, 120 h) stood at 7.78 µM. Also, in assay [2], the “Selectivity Index” value is >25.71. Further, the IC50 in assay [3] was > 200 µM.

In the case of `O=C(N/N=C/c1ccc2c(c1)no[n+]2[O-])c1ccc(F)cc1`, in assay [1], the log1/GI50 is listed as 4.82. Moreover, the GI50 in assay [1] (Trypanosoma cruzi, Y, 120 h) came out at 15.3 µM.

`O=C(N/N=C/c1ccc2c(c1)no[n+]2[O-])c1ccc(I)cc1`: the log1/GI50 in assay [1] turned out to be 5.21. The GI50 in assay [1] (Trypanosoma cruzi, Y, 120 h) came to 6.11 µM. In addition, the “Selectivity Index” value in assay [2] is recorded as >32.73. The concentration for half-maximal inhibition (IC50) in assay [3] was > 200 µM.

For `CCOc1ccc(C(=O)N/N=C/c2ccc3c(c2)no[n+]3[O-])cc1`, the log1/GI50 in assay [1] worked out at 5.02. Also, in assay [1] (Trypanosoma cruzi, Y, 120 h), the GI50 came out at 9.62 µM.

As to `CC(C)(C)c1ccc(C(=O)N/N=C/c2ccc3c(c2)no[n+]3[O-])cc1`, the log1/GI50 in assay [1] is given as 5.24. The GI50 in assay [1] (Trypanosoma cruzi, Y, 120 h) was determined as 5.45 µM. In addition, the “Selectivity Index” value in assay [2] was >36.7. Further, the IC50 in assay [3] is > 200 µM.

For the compound `CN(C)c1ccc(C(=O)N/N=C/c2ccc3c(c2)no[n+]3[O-])cc1`, in assay [1], the GI50 entry is “inactive”.

Turning to `Nc1ccc(C(=O)N/N=C/c2ccc3c(c2)no[n+]3[O-])cc1`, the log1/GI50 in assay [1] turned out to be 3.93. The GI50 in assay [1] (Trypanosoma cruzi, Y, 120 h) stood at 117 µM. For the same compound, in assay [2], the “Selectivity Index” value worked out at 1.71. Also, the IC50 in assay [3] was > 200 µM.

With `O=C(N/N=C/c1ccc2c(c1)no[n+]2[O-])c1ccc(C(F)(F)F)cc1`, in assay [1], the log1/GI50 was determined as 5.02. Further, the concentration for 50% growth inhibition (GI50) in assay [1] (Trypanosoma cruzi, Y, 120 h) turned out to be 9.62 µM.

Values taken from ChEMBL document CHEMBL2390827, “Ligand-based design, synthesis, and experimental evaluation of novel benzofuroxan derivatives as anti-Trypanosoma cruzi agents” (Eur J Med Chem, 2013).
